From patent US20250114460A1, “NOVEL PLK1 DEGRADATION INDUCING COMPOUND” (UPPTHERA, INC., priority 2021, published 2025) come the findings set out here.

Holding throughout (type): cell-based
Assay [1] deals with NCI-H526 cell line. Briefly: Cell viability assay for H526 cell (EZ-Cytox). Particulars: Homo sapiens, NCI-H526, 120 h; H526 cells, 5 days, 3000 nM to 0.46 nM. An outline of the steps: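 NCI-H526 cells were exposed to compound in CO2 incubator culture for 5 days. Viability was read by EZ-Cytox absorbance at 450 nm after 3 min shaking, giving IC50 values.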
For assay [2], the system named is MRC-5 cell line. As to the kind of experiment: Cell viability assay for MRC-5 cell line (EZ-Cytox). Particulars: Homo sapiens, MRC5, 120 h; MRC-5 normal cell line, 5 days, 10000 nM to 1.52 nM; N.D. = no cytotoxicity until 10 μM; read-out: Activity: IC50 value of Exemplary Compound to MRC-5 cell line. As for the experimental part: 4. Cell Viability Assay for MRC-5 Cell Line
(1) Culture of MRC-5 Cell Line
Passage of cultured cells was maintained within P15.
(2) Treatment of Compounds of the Present Invention
Then, it was cultured in 37° C.
(3) Cytotoxicity Experiment
CO2 incubator for 4 hours.

For assay [3], the target named is T1, PLK1 (Homo sapiens, UniProt P53350).
T1 construct: endogenous in cells; host or cells: HeLa LgBit (Plk1-HiBit KI): HeLa stably expressing LgBit, with a CRISPR/Cas9 knock-in of HiBit at the endogenous PLK1 locus
As to the kind of experiment: Luciferase assay for PLK1 in HeLa LgBit (Plk1-HiBit KI) cell line. Particulars: 300 nM compound, luminescence after 9 hours. An outline of the steps:
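HeLa cells stably expressing LgBit, with HiBit knocked in at the C-terminus of endogenous Plk1, released from a 24 h 2 mM thymidine block and grown 18 h. Endurazine added, then compound at 300 nM; luminescence tracked in real time, expressed as ratio to DMSO.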
In general terms: The HiBiT peptide binds its large partner to form an active luciferase.

T1 sequence (P53350 whole entry): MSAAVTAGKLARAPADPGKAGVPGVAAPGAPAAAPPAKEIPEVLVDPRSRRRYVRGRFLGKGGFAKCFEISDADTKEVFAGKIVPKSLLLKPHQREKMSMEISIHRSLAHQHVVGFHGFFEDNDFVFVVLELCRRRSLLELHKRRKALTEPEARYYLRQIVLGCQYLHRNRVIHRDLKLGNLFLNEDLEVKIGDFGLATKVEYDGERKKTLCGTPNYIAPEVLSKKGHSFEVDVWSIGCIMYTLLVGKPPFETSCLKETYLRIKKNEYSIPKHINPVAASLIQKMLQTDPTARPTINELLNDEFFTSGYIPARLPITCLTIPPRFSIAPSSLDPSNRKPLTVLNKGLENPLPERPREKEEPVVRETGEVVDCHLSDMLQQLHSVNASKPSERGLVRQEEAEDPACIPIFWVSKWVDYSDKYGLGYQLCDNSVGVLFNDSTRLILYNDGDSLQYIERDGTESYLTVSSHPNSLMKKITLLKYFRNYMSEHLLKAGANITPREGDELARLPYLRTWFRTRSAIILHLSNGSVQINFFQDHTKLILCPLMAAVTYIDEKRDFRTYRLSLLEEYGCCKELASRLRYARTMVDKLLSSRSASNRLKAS

As usually defined, the IC50 is the concentration that inhibits the measured activity by half. In the case of `COc1cc(C(=O)NC2CCN(C(=O)CCN3CCN(c4cccc5c4C(=O)N(C4CCC(=O)NC4=O)C5=O)CC3)CC2)ccc1Nc1ncc2c(n1)N(C(C)C)CC(F)(F)C(=O)N2C` (stereo not drawn) [Compound 66, 4 4-((7,7-difluoro-9-isopropyl-5-methyl-6-oxo-6,7,8,9-tetrahydro-5H-pyrimido[4,5-b][1,4]diazepin-2-yl)amino)-N-(1-(3-(4-(2-(2,6-dioxopiperidin-3-yl)-1,3-dioxoisoindolin-4-yl)piperazin-1-yl)propanoyl)piperidin-4-yl)-3-methoxybenzamide], the IC50 was less than 0.05 µM in assay [1] and more than 10 µM in assay [2]. In assay [3], the “Activity: ratio of the luminescense value of each Exemplary Compound treatment group to DMSO treatment group” value (“Activity: ratio” for short) is recorded as “+++ (+++: <0.3)”.
With `COc1cc(C(=O)NC2CCN(C(=O)CCN3CCN(c4cccc5c4C(=O)N(C4CCC(=O)NC4=O)C5=O)CC3)CC2)ccc1Nc1ncc2c(n1)N(C1CCC1)CC(F)(F)C(=O)N2C` (stereo not drawn) [Compound 68, 4-((9-cyclobutyl-7,7-difluoro-5-methyl-6-oxo-6,7,8,9-tetrahydro-5H-pyrimido[4,5-b][1,4]diazepin-2-yl)amino)-N-(1-(3-(4-(2-(2,6-dioxopiperidin-3-yl)-1,3-dioxoisoindolin-4-yl)piperazin-1-yl)propanoyl)piperidin-4-yl)-3-methoxybenzamide], the IC50 was less than 0.1 µM in assay [1] and more than 10 µM in assay [2]. In addition, in assay [3], the “Activity: ratio” value is listed as “+++ (+++: <0.3)”.
The corresponding values for `Cc1cc(C(=O)NC2CCN(C(=O)CCN3CCN(c4cccc5c4C(=O)N(C4CCC(=O)NC4=O)C5=O)CC3)CC2)ccc1Nc1ncc2c(n1)N(C1CCCC1)CC(F)(F)C(=O)N2C` (stereo not drawn) [Compound 71, 4-((9-cyclopentyl-7,7-difluoro-5-methyl-6-oxo-6,7,8,9-tetrahydro-5H-pyrimido[4,5-b][1,4]diazepin-2-yl)amino)-N-(1-(3-(4-(2-(2,6-dioxopiperidin-3-yl)-1,3-dioxoisoindolin-4-yl)piperazin-1-yl)propanoyl)piperidin-4-yl)-3-methylbenzamide] are less than 0.05 µM, more than 10 µM and “++ (++<0.6)”.
As for `CN1C(=O)C(F)(F)CN(C2CCCC2)c2nc(Nc3ccc(C(=O)NC4CCN(C(=O)CCN5CCN(c6cccc7c6C(=O)N(C6CCC(=O)NC6=O)C7=O)CC5)CC4)cc3O)ncc21` (stereo not drawn) [Compound 72, 4-((9-cyclopentyl-7,7-difluoro-5-methyl-6-oxo-6,7,8,9-tetrahydro-5H-pyrimido[4,5-b][1,4]diazepin-2-yl)amino)-N-(1-(3-(4-(2-(2,6-dioxopiperidin-3-yl)-1,3-dioxoisoindolin-4-yl)piperazin-1-yl)propanoyl)piperidin-4-yl)-3-hydroxybenzamide], the IC50 was less than 0.1 µM in assay [1] and more than 10 µM in assay [2]. The “Activity: ratio” value in assay [3] is listed as “++ (++<0.6)”.
The corresponding values for `CN1C(=O)C(F)(F)CN(C2CCCC2)c2nc(Nc3ccc(C(=O)NC4CCN(C(=O)CCN5CCN(c6cccc7c6C(=O)N(C6CCC(=O)NC6=O)C7=O)CC5)CC4)cc3OC(F)(F)F)ncc21` (stereo not drawn) [Compound 74, 4-((9-cyclopentyl-7,7-difluoro-5-methyl-6-oxo-6,7,8,9-tetrahydro-5H-pyrimido[4,5-b][1,4]diazepin-2-yl)amino)-N-(1-(3-(4-(2-(2,6-dioxopiperidin-3-yl)-1,3-dioxoisoindolin-4-yl)piperazin-1-yl)propanoyl)piperidin-4-yl)-3-(trifluoromethoxy)benzamide] are less than 0.2 µM, more than 10 µM and “++ (++<0.6)”.
Consider `COc1cc(C(=O)NN2CCN(C(=O)CCC3CCN(c4cccc5c4C(=O)N(C4CCC(=O)NC4=O)C5=O)CC3)CC2)ccc1Nc1ncc2c(n1)N(C1CCCC1)CC(F)(F)C(=O)N2C` (stereo not drawn) [Compound 76, 4-((9-cyclopentyl-7,7-difluoro-5-methyl-6-oxo-6,7,8,9-tetrahydro-5H-pyrimido[4,5-b][1,4]diazepin-2-yl)amino)-N-(4-(3-(1-(2-(2,6-dioxopiperidin-3-yl)-1,3-dioxoisoindolin-4-yl)piperidin-4-yl)propanoyl)piperazin-1-yl)-3-methoxybenzamide], for which the IC50 in assay [1] was less than 0.1 µM; in assay [2], more than 10 µM. The “Activity: ratio” value in assay [3] is recorded as “+++ (+++: <0.3)”.
Regarding `COc1cc(C(=O)N(C)C2CCN(C(=O)CCN3CCN(c4cccc5c4C(=O)N(C4CCC(=O)NC4=O)C5=O)CC3)CC2)ccc1Nc1ncc2c(n1)N(C1CCCC1)CC(F)(F)C(=O)N2C` (stereo not drawn) [Compound 77, 4-((9-cyclopentyl-7,7-difluoro-5-methyl-6-oxo-6,7,8,9-tetrahydro-5H-pyrimido[4,5-b][1,4]diazepin-2-yl)amino)-N-(1-(3-(4-(2-(2,6-dioxopiperidin-3-yl)-1,3-dioxoisoindolin-4-yl)piperazin-1-yl)propanoyl)piperidin-4-yl)-3-methoxy-N-methylbenzamide], the figures for the IC50 in assay [1] and in assay [2] were less than 0.1 µM and more than 10 µM, respectively. Further, the “Activity: ratio” value in assay [3] was “++ (++<0.6)”.
In the case of `COc1cc(C(=O)NC2CCN(C(=O)CCN3CCN(c4cccc5c4C(=O)N(C4CCC(=O)NC4=O)C5=O)CC3)CC2)c(Cl)cc1Nc1ncc2c(n1)N(C1CCCC1)CC(F)(F)C(=O)N2C` (stereo not drawn) [Compound 78, 2-chloro-4-((9-cyclopentyl-7,7-difluoro-5-methyl-6-oxo-6,7,8,9-tetrahydro-5H-pyrimido[4,5-b][1,4]diazepin-2-yl)amino)-N-(1-(3-(4-(2-(2,6-dioxopiperidin-3-yl)-1,3-dioxoisoindolin-4-yl)piperazin-1-yl)propanoyl)piperidin-4-yl)-5-methoxybenzamide], the IC50 was less than 0.1 µM in assay [1] and more than 10 µM in assay [2]. Besides, the “Activity: ratio” value in assay [3] is recorded as “+++ (+++: <0.3)”.
On to `COc1cc(C(=O)NC2CCN(C(=O)COC3CCN(c4cccc5c4C(=O)N(C4CCC(=O)NC4=O)C5=O)CC3)CC2)ccc1Nc1ncc2c(n1)N(C1CCCC1)CC(F)(F)C(=O)N2C` (stereo not drawn) [Compound 79, 4-((9-cyclopentyl-7,7-difluoro-5-methyl-6-oxo-6,7,8,9-tetrahydro-5H-pyrimido[4,5-b][1,4]diazepin-2-yl)amino)-N-(1-(2-((1-(2-(2,6-dioxopiperidin-3-yl)-1,3-dioxoisoindolin-4-yl)piperidin-4-yl)oxy)acetyl)piperidin-4-yl)-3-methoxybenzamide], for which the IC50 is less than 0.1 µM in assay [1] and more than 10 µM in assay [2]. Besides, in assay [3], the “Activity: ratio” value is on record as “+++ (+++: <0.3)”.
As for `COc1cc(C(=O)NC2CCN(C(=O)CCN3CCN(c4cccc5c4CN(C4CCC(=O)NC4=O)C5=O)CC3)CC2)ccc1Nc1ncc2c(n1)N(C1CCCC1)CC(F)(F)C(=O)N2C` (stereo not drawn) [Compound 81, 4-((9-cyclopentyl-7,7-difluoro-5-methyl-6-oxo-6,7,8,9-tetrahydro-5H-pyrimido[4,5-b][1,4]diazepin-2-yl)amino)-N-(1-(3-(4-(2-(2,6-dioxopiperidin-3-yl)-1-oxoisoindolin-4-yl)piperazin-1-yl)propanoyl)piperidin-4-yl)-3-methoxybenzamide], the IC50 in assay [1] was less than 0.05 µM; in assay [2], more than 10 µM. In addition, the “Activity: ratio” value in assay [3] was “++ (++<0.6)”.
As for `COc1cc(C(=O)NC2CCN(C(=O)CCN3CCN(c4ccc5c(c4)CN(C4CCC(=O)NC4=O)C5=O)CC3)CC2)ccc1Nc1ncc2c(n1)N(C1CCCC1)CC(F)(F)C(=O)N2C` (stereo not drawn) [Compound 82, 4-((9-cyclopentyl-7,7-difluoro-5-methyl-6-oxo-6,7,8,9-tetrahydro-5H-pyrimido[4,5-b][1,4]diazepin-2-yl)amino)-N-(1-(3-(4-(2-(2,6-dioxopiperidin-3-yl)-1-oxoisoindolin-5-yl)piperazin-1-yl)propanoyl)piperidin-4-yl)-3-methoxybenzamide], the IC50 in assay [1] was less than 0.03 µM; in assay [2], more than 10 µM. Besides, in assay [3], the “Activity: ratio” value was “++ (++<0.6)”.
The corresponding values for `COc1cc(C(=O)N2CCN(CCN3CCN(c4ccc5c(c4)C(=O)N(C4CCC(=O)NC4=O)C5=O)CC3)CC2)ccc1Nc1ncc2c(n1)N(C1CCCC1)CC(F)(F)C(=O)N2C` (stereo not drawn) [Compound 89, 5-(4-(2-(4-(4-((9-cyclopentyl-7,7-difluoro-5-methyl-6-oxo-6,7,8,9-tetrahydro-5H-pyrimido[4,5-b][1,4]diazepin-2-yl)amino)-3-methoxybenzoyl)piperazin-1-yl)ethyl)piperazin-1-yl)-2-(2,6-dioxopiperidin-3-yl)isoindoline-1,3-dione] are less than 0.4 µM, more than 10 µM and “++ (++<0.6)”.
